Target: T1, CIB1 and αIIb interaction (CIB1-GST : F-αIIb peptide) (Homo sapiens, UniProt Q99828)
T1 construct: made in house; host or cells: BL-21 plus RIL cells (E. coli)
T1 sequence (Q99828 1-191): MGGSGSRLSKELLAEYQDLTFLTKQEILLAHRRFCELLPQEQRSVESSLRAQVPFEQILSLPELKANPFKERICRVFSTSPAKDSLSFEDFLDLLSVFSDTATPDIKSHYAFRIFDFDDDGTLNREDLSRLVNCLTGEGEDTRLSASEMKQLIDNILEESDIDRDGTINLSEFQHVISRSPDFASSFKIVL
Experiment: FP assay, 1536-well qHTS format (primary and confirmatory screen)
Assay type: binding
Conditions: Table S3, confirmatory screen, qHTS curve class; a negative sign marks inhibitory curves

| SMILES | Curve Class (confirmatory screen) |
| --- | --- |
| O=C(O)C(F)(F)F.O=C(c1ccc(-c2cc(O)c3ncccc3c2)cc1)N1CCNCC1 [NCGC00183806-01] | 4 |
| CN(C)CCCNC(=O)c1ccc(-c2cc(O)c3ncccc3c2)cc1 [NCGC00183808-06] | 4 |
| CC(=O)Nc1sc2c(c1-c1nc3ccccc3s1)CNC2.O=C(O)C(F)(F)F [NCGC00185090-03] | 4 |

Same assay, conditions: Table S3, confirmatory screen; negative = inhibition

| SMILES | Efficacy (%) (confirmatory screen) |
| --- | --- |
| O=C(O)C(F)(F)F.O=C(c1ccc(-c2cc(O)c3ncccc3c2)cc1)N1CCNCC1 [NCGC00183806-01] | -11 |
| CN(C)CCCNC(=O)c1ccc(-c2cc(O)c3ncccc3c2)cc1 [NCGC00183808-06] | 0 |
| CC(=O)Nc1sc2c(c1-c1nc3ccccc3s1)CNC2.O=C(O)C(F)(F)F [NCGC00185090-03] | -34 |

Same assay, conditions: confirmatory screen

| CONFIRMATORY SCREEN Efficacy (%) | SMILES | Efficacy (%) (confirmatory screen) |
| --- | --- | --- |
| – | C=CCNc1oc(-c2ccc(Cl)cc2)nc1C#N.O=C(O)C(F)(F)F [NCGC00183412-01] | -72 |
| -36 | CC(=O)NC(c1cccs1)c1cc(Br)c2cccnc2c1O (centres unmarked) [NCGC00183685-02] | – |
| – | CCC(=O)NC(c1cccs1)c1cc(Br)c2cccnc2c1O (centres unmarked) [NCGC00183689-01] | -56 |

Same assay, conditions: confirmatory screen, YES/NO

| SMILES | Confirm? (confirmatory screen) |
| --- | --- |
| C=CCNc1oc(-c2ccc(Cl)cc2)nc1C#N.O=C(O)C(F)(F)F [NCGC00183412-01] | YES |
| CCC(=O)NC(c1cccs1)c1cc(Br)c2cccnc2c1O (centres unmarked) [NCGC00183689-01] | YES |

Same assay, conditions: confirmatory screen, qHTS curve class

| CONFIRMATORY SCREEN Curve Class | SMILES |
| --- | --- |
| 4 | CC(=O)NC(c1cccs1)c1cc(Br)c2cccnc2c1O (centres unmarked) [NCGC00183685-02] |

Same assay, conditions: confirmatory screen, qHTS curve class; negative sign = inhibitory curve

| SMILES | Curve Class (confirmatory screen) |
| --- | --- |
| C=CCNc1oc(-c2ccc(Cl)cc2)nc1C#N.O=C(O)C(F)(F)F [NCGC00183412-01] | -2.2 |
| CCC(=O)NC(c1cccs1)c1cc(Br)c2cccnc2c1O (centres unmarked) [NCGC00183689-01] | -2.4 |

Same assay, conditions: confirmatory screen; read-out: IC50 [μM] (confirmatory screen)

| SMILES | IC50 [µM] |
| --- | --- |
| C=CCNc1oc(-c2ccc(Cl)cc2)nc1C#N.O=C(O)C(F)(F)F [NCGC00183412-01] | 31.6 |
| CCC(=O)NC(c1cccs1)c1cc(Br)c2cccnc2c1O (centres unmarked) [NCGC00183689-01] | 25.1 |

Same assay, conditions: qHTS FP screen hits, Table S2; negative = inhibition

| SMILES | Efficacy (%) |
| --- | --- |
| C=CCNc1oc(-c2ccc(Cl)cc2)nc1C#N.O=C(O)C(F)(F)F [NCGC00183412-01] | -54 |
| CCC(=O)NC(c1cccs1)c1cc(Br)c2cccnc2c1O (centres unmarked) [NCGC00183689-01] | -54 |
| CC(=O)Nc1sc2c(c1-c1nc3ccccc3s1)CNC2.O=C(O)C(F)(F)F [NCGC00185090-03] | -28 |

Same assay, conditions: qHTS FP screen hits, Table S2; one class per curve where COUNT > 1; negative sign = inhibitory curve

| SMILES | Curve Class |
| --- | --- |
| C=CCNc1oc(-c2ccc(Cl)cc2)nc1C#N.O=C(O)C(F)(F)F [NCGC00183412-01] | -2.2 |
| CCC(=O)NC(c1cccs1)c1cc(Br)c2cccnc2c1O (centres unmarked) [NCGC00183689-01] | -1.2 |

Same assay, conditions: qHTS FP screen hits, Table S2; read-out: IC50

| SMILES | IC50 [µM] |
| --- | --- |
| C=CCNc1oc(-c2ccc(Cl)cc2)nc1C#N.O=C(O)C(F)(F)F [NCGC00183412-01] | 50.1 |
| CCC(=O)NC(c1cccs1)c1cc(Br)c2cccnc2c1O (centres unmarked) [NCGC00183689-01] | 28.2 |
| CC(=O)Nc1sc2c(c1-c1nc3ccccc3s1)CNC2.O=C(O)C(F)(F)F [NCGC00185090-03] | 12.6 |

Same assay, conditions: qHTS primary screen hits, Table S2; negative = inhibition

| SMILES | Efficacy (%) |
| --- | --- |
| O=C(O)C(F)(F)F.O=C(c1ccc(-c2cc(O)c3ncccc3c2)cc1)N1CCNCC1 [NCGC00183806-01] | -40 |

Same assay, conditions: qHTS primary screen hits, Table S2; negative sign = inhibitory curve

| SMILES | Curve Class |
| --- | --- |
| O=C(O)C(F)(F)F.O=C(c1ccc(-c2cc(O)c3ncccc3c2)cc1)N1CCNCC1 [NCGC00183806-01] | -2.2 |

Same assay, conditions: qHTS primary screen hits, Table S2; read-out: IC50

| SMILES | IC50 [µM] |
| --- | --- |
| O=C(O)C(F)(F)F.O=C(c1ccc(-c2cc(O)c3ncccc3c2)cc1)N1CCNCC1 [NCGC00183806-01] | 39.8 |

Target: T2, GST-CIB1 : F-scrambled peptide (Homo sapiens, UniProt Q99828)
T2 construct: made in house; host or cells: BL-21 plus RIL cells (E. coli)
T2 sequence (Q99828 1-191): T1 sequence (Q99828 1-191)
Experiment: FP scrambled-peptide counter screen, 1536-well format
Assay type: binding
Conditions: Table S3, counterscreen, YES/NO call

| SMILES | Confirm? (counterscreen) |
| --- | --- |
| O=C(O)C(F)(F)F.O=C(c1ccc(-c2cc(O)c3ncccc3c2)cc1)N1CCNCC1 [NCGC00183806-01] | YES |
| CN(C)CCCNC(=O)c1ccc(-c2cc(O)c3ncccc3c2)cc1 [NCGC00183808-06] | YES |
| CC(=O)Nc1sc2c(c1-c1nc3ccccc3s1)CNC2.O=C(O)C(F)(F)F [NCGC00185090-03] | YES |

Same assay, conditions: Table S3, counterscreen, qHTS curve class; a negative sign marks inhibitory curves

| SMILES | Curve Class (counterscreen) |
| --- | --- |
| O=C(O)C(F)(F)F.O=C(c1ccc(-c2cc(O)c3ncccc3c2)cc1)N1CCNCC1 [NCGC00183806-01] | -1.2 |
| CN(C)CCCNC(=O)c1ccc(-c2cc(O)c3ncccc3c2)cc1 [NCGC00183808-06] | -2.4 |
| CC(=O)Nc1sc2c(c1-c1nc3ccccc3s1)CNC2.O=C(O)C(F)(F)F [NCGC00185090-03] | -2.4 |

Same assay, conditions: Table S3, counterscreen; negative = inhibition

| SMILES | Efficacy (%) (counterscreen) |
| --- | --- |
| O=C(O)C(F)(F)F.O=C(c1ccc(-c2cc(O)c3ncccc3c2)cc1)N1CCNCC1 [NCGC00183806-01] | -59 |
| CN(C)CCCNC(=O)c1ccc(-c2cc(O)c3ncccc3c2)cc1 [NCGC00183808-06] | -38 |
| CC(=O)Nc1sc2c(c1-c1nc3ccccc3s1)CNC2.O=C(O)C(F)(F)F [NCGC00185090-03] | -43 |

Same assay, conditions: Table S3, counterscreen; read-out: IC50 [μM] (counterscreen)

| SMILES | IC50 [µM] |
| --- | --- |
| O=C(O)C(F)(F)F.O=C(c1ccc(-c2cc(O)c3ncccc3c2)cc1)N1CCNCC1 [NCGC00183806-01] | 35.5 |
| CN(C)CCCNC(=O)c1ccc(-c2cc(O)c3ncccc3c2)cc1 [NCGC00183808-06] | 70.8 |
| CC(=O)Nc1sc2c(c1-c1nc3ccccc3s1)CNC2.O=C(O)C(F)(F)F [NCGC00185090-03] | 50.1 |

Same assay, conditions: counterscreen

| COUNTERSCREEN Efficacy (%) | SMILES | Efficacy (%) (counterscreen) |
| --- | --- | --- |
| – | C=CCNc1oc(-c2ccc(Cl)cc2)nc1C#N.O=C(O)C(F)(F)F [NCGC00183412-01] | -30 |
| -11 | CC(=O)NC(c1cccs1)c1cc(Br)c2cccnc2c1O (centres unmarked) [NCGC00183685-02] | – |
| – | CCC(=O)NC(c1cccs1)c1cc(Br)c2cccnc2c1O (centres unmarked) [NCGC00183689-01] | -21 |

Same assay, conditions: counterscreen, YES/NO

| Confirm? (counterscreen) | SMILES |
| --- | --- |
| YES | CCC(=O)NC(c1cccs1)c1cc(Br)c2cccnc2c1O (centres unmarked) [NCGC00183689-01] |

Same assay, conditions: counterscreen, qHTS curve class

| COUNTERSCREEN Curve Class | SMILES |
| --- | --- |
| 4 | CC(=O)NC(c1cccs1)c1cc(Br)c2cccnc2c1O (centres unmarked) [NCGC00183685-02] |

Same assay, conditions: counterscreen, qHTS curve class; negative sign = inhibitory curve

| SMILES | Curve Class (counterscreen) |
| --- | --- |
| C=CCNc1oc(-c2ccc(Cl)cc2)nc1C#N.O=C(O)C(F)(F)F [NCGC00183412-01] | -1.2 |
| CCC(=O)NC(c1cccs1)c1cc(Br)c2cccnc2c1O (centres unmarked) [NCGC00183689-01] | 4 |

Same assay, conditions: counterscreen; read-out: IC50 [μM] (counterscreen)

| SMILES | IC50 [µM] |
| --- | --- |
| C=CCNc1oc(-c2ccc(Cl)cc2)nc1C#N.O=C(O)C(F)(F)F [NCGC00183412-01] | 12.6 |

Source: publication PMC11249646, “Small-Molecule Disruptors of the Interaction between Calcium- and Integrin-Binding Protein 1 and Integrin αIIbβ3 as Novel Antiplatelet Agents” (ACS Pharmacology & Translational Science, 2024)
